One assay concerns rabbit aorta. The assay can be described thus: Vasodilatory effect: inhibition of calcium-induced contraction of K+-depolarized isolated rabbit aorta strips. It counts as cell-based, white New Zealand rabbits. The following applies: Oryctolagus cuniculus. As for the experimental part:
(§1) The vasodilatory effects are tested as follows: an isolated aorta of the thorax of white New Zealand rabbits is secured in an organ bath. The contractile activity of the helical throacic aorta strip is recorded after depolarization with Krebs solution without calcium (35 mM, potassium) and addition of external calcium pulses (1.5 mM). The compounds are added in increasing concentrations before calcium is reintroduced.

The test system of assay [1] is left stimulated rabbit atrium / rabbit aorta. The assay is described as follows: Tissue selectivity: ratio of IC50 in left stimulated isolated rabbit atrium to IC50 in K+-depolarized rabbit aorta. Format: cell-based. As to conditions: ratio of IC50 in left stimulated rabbit atrium and IC50 in rabbit aorta. As for the experimental part:
as §1
The electrical stimulation is fixed at 1 Hz. After one hour equilibration the percentage contraction is set at 100%, increased concentrations of the compounds are added to the bath every 15 minutes and the changes in the contractile force are recorded. The IC50 values are calculated by interpolation from the concentration-effect relationship determined in each of the experiments.

Assay [2] concerns spontaneously hypertensive rats (SHR). The assay is described as follows: Antihypertensive activity in spontaneously hypertensive rats (systolic blood pressure, tail plethysmography). Format: in vivo, spontaneously hypertensive rats (SHR) of Okamoto strain. The following applies: Rattus norvegicus, single oral dose 20 mg/kg, 2 hours after treatment. As for the experimental part: The antihypertensive activity of the compounds of the invention is tested in spontaneously hypertensive rats (SHR) of Okamoto strain. Systolic blood pressure is monitored by tail plethysmography. The animals are trained for two weeks for the monitoring process. On the day of the experiment the rats are placed in an oven for two hours at 31°±1° C. and blood pressure is recorded graphically. The measurement recorded is the average of five measurements taken in each case. Only animals with basic values of systolic blood pressure over 170 mm Hg are considered hypertensive. After 24 hours fasting the compound to be tested (20 mg/kg) and/or a carrier (20% PEG 400 in 0.5% aqueous methyl cellulose (10 ml/kg)) is orally administered to the selected hypertensive animals by means of a gastric cannula. The values are expressed in percentage variation 2 hours after treatment.

Molecules are shown by their SMILES.

The values that follow come from patent publication US5691361A, “1,4-dihydropyridine derivatives, a process for their preparation and their use for influencing the blood flow” (priority 1995, dated 1997).

For `CC1=C(C(=O)OCCN2C(=O)c3ccccc3S2(=O)=O)C(c2cccc([N+](=O)[O-])c2)C(C(=O)OC(C)C)=C(C)N1` (stereo not drawn) [Example 3, 2,6-Dimethyl-5-isopropoxycarbonyl-4-(3-nitrophenyl)-1,4-dihydropyridine-3-carboxylic acid-2-[N-(1,2-benzisothiazolyl-3(2H)one-1,1-dioxide)]-ethylester], the IC50 in the assay with rabbit aorta worked out at 0.27 nM. For the same compound, the “Selectivity index (Atrium/Aorta)” value in assay [1] is recorded as 137. Also, in assay [2], the change in vivo at 20 mg/kg turned out to be 19.7%.
Turning to `CC1=C(C(=O)OCCN2C(=O)c3ccccc3S2(=O)=O)C(c2cccc(Cl)c2Cl)C(C(=O)OC(C)C)=C(C)N1` (stereo not drawn) [Example 16, 4-(2,3-Dichlorophenyl)-2,6-dimethyl-5-isopropoxycarbonyl-1,4-dihydropyridine-3-carboxyic acid-2-[N-(1,2-benzisothiazolyl-3(2H)one-1,1-dioxide)]-ethylester], the IC50 in the assay on rabbit aorta turned out to be 0.25 nM. Further, the “Selectivity index (Atrium/Aorta)” value in assay [1] is given as 2744. The change in vivo at 20 mg/kg in assay [2] worked out at 7.45%.
Regarding `CCOC(=O)C1=C(C)NC(C)=C(C(=O)OCCN2C(=O)c3ccccc3S2(=O)=O)C1c1ccccc1C(F)(F)F` (stereo not drawn) [Example 17, 2,6-Dimethyl-5-ethoxycarbonyl-4-(2-trifluoromethylphenyl)-1,4-dihydropyridine-3-carboxylic acid-2-[N-(1,2-benzisothiazolyl-3(2H)one-1,1-dioxide)]-ethylester], in the assay with rabbit aorta, the IC50 turned out to be 0.49 nM. The “Selectivity index (Atrium/Aorta)” value in assay [1] is 152. For the same compound, the change in vivo at 20 mg/kg in assay [2] came to 27.3%.
For `CC1=C(C(=O)OCCN2C(=O)c3ccccc3S2(=O)=O)C(c2ccccc2C(F)(F)F)C(C(=O)OC(C)C)=C(C)N1` (stereo not drawn) [Example 18, 2,6-Dimethyl-5-isopropoxycarbonyl-4-(2-trifluoromethylphenyl)-1,4-dihydropyridine-3-carboxylic acid-2-[N-(1,2-benzisothiazolyl-3(2H)one-1,1-dioxide)]-ethylester], the IC50 in the assay on rabbit aorta turned out to be 0.98 nM. In assay [1], the “Selectivity index (Atrium/Aorta)” value was found to be 103. For the same compound, the change in vivo at 20 mg/kg in assay [2] was 37.1%.
With `CC1=C(C(=O)OCCCN2C(=O)c3ccccc3S2(=O)=O)C(c2cccc([N+](=O)[O-])c2)C(C(=O)OC(C)C)=C(C)N1` (stereo not drawn) [Example 25, 2,6-Dimethyl-5-isopropoxycarbonyl-4-(3-nitrophenyl)-1,4-dihydropyridine-3-carboxylic acid-3-[N-(1,2-benzisothiazolyl-3(2H)one-1,1-dioxide)]-propylester], the IC50 with rabbit aorta turned out to be 1.02 nM. Also, the “Selectivity index (Atrium/Aorta)” value in assay [1] came to 205. The change in vivo at 20 mg/kg in assay [2] was -1.01%.
On the same counts, the results for `COC(=O)C1=C(C)NC(C)=C(C(=O)OCCCN2C(=O)c3ccccc3S2(=O)=O)C1c1cccc(Cl)c1Cl` (stereo not drawn) [Example 29, 4-(2,3-Dichlorophenyl)-2,6-dimethyl-5-methoxycarbonyl-1,4-dihydropyridine-3-carboxylic acid-3-[N-(1,2-benzisothiazolyl-3(2H)one-1,1-dioxide)]-propylester] are 0.76 nM, 686 and 35%.
Turning to `COC(=O)C1=C(C)NC(C)=C(C(=O)OCCCN2C(=O)c3ccccc3S2(=O)=O)C1c1ccccc1Cl` (stereo not drawn) [Example 34, 4-(2-Chlorophenyl)-2,6-dimethyl-5-methoxycarbonyl-1,4-dihydropyridine-3-carboxylic acid-3-[N-(1,2-benzisothiazolyl-3(2H)one-1,1-dioxide)]-propylester], the IC50 in the assay on rabbit aorta is 1.82 nM. Moreover, the “Selectivity index (Atrium/Aorta)” value in assay [1] is listed as 77. The change in vivo at 20 mg/kg in assay [2] amounted to 11.1%.
On the same counts, the results for `COC(=O)C1=C(C)NC(C)=C(C(=O)OCCCN2C(=O)c3ccccc3S2(=O)=O)C1c1ccccc1[N+](=O)[O-]` (stereo not drawn) [Example 37, 2,6-Dimethyl-5-methoxycarbonyl-4-(2-nitrophenyl)-1,4-dihydropyridine-3-carboxylic acid-3-[N-(1,2-benzisothiazolyl-3(2H)one-1,1-dioxide)]-propylester] are 1.5 nM, 80 and 6.83%.
As for `CC1=C(C(=O)OCCCN2C(=O)c3ccccc3S2(=O)=O)C(c2ccccc2[N+](=O)[O-])C(C(=O)OC(C)C)=C(C)N1` (stereo not drawn) [Example 39, 2,6-Dimethyl-5-isopropoxycarbonyl-4-(2-nitrophenyl)-1,4-dihydropyridine-3-carboxylic acid-3-[N-(1,2-benzisothiazolyl-3(2H)one-1,1-dioxide)]-propylester], the half-maximal inhibitory concentration (IC50) with rabbit aorta came out at 1.22 nM. Besides, in assay [1], the “Selectivity index (Atrium/Aorta)” value turned out to be 15. In assay [2], the change in vivo at 20 mg/kg turned out to be 3.61%.
On the same counts, the results for `CCOC(=O)C1=C(C)NC(C)=C(C(=O)OCCCN2C(=O)c3ccccc3S2(=O)=O)C1c1cccc(Cl)c1Cl` (stereo not drawn) [Example 40, 4-(2,3-Dichlorophenyl)-2,6-dimethyl-5-ethoxycarbonyl-1,4-dihydropyridine-3-carboxylic acid-3-[N-(1,2-benzisothiazolyl-3(2H)one-1,1-dioxide)]-propylester] are 1.77 nM, 200 and 35.5%.
Regarding `CC1=C(C(=O)OCCCN2C(=O)c3ccccc3S2(=O)=O)C(c2cccc(Cl)c2Cl)C(C(=O)OC(C)C)=C(C)N1` (stereo not drawn) [Example 42, 4-(2,3-Dichlorophenyl)-2,6-dimethyl-5-isopropoxycarbonyl-1,4-dihydropyridine-3-carboxylic acid-3-[N-(1,2-benzisothiazolyl-3(2H)one-1,1-dioxide)]-propylester], in the assay with rabbit aorta, the IC50 stood at 2.08 nM. In addition, in assay [1], the “Selectivity index (Atrium/Aorta)” value is 75. Also, the change in vivo at 20 mg/kg in assay [2] came out at 10.5%.
As to `CCOC(=O)C1=C(C)NC(C)=C(C(=O)OCCCN2C(=O)c3ccccc3S2(=O)=O)C1c1ccccc1C(F)(F)F` (stereo not drawn) [Example 43, 2,6-Dimethyl-5-ethoxycarbonyl-4-(2-trifluoromethylphenyl)-1,4-dihydropyridine-3-carboxylic acid-3-[N-(1,2-benzisothiazolyl-3(2H)one-1,1-dioxide)]-propylester], in the assay with rabbit aorta, the IC50 was 0.76 nM. Moreover, the “Selectivity index (Atrium/Aorta)” value in assay [1] came out at 163. Also, the change in vivo at 20 mg/kg in assay [2] is 18.6%.
For the compound `COCCOC(=O)C1=C(C)NC(C)=C(C(=O)OCCCN2C(=O)c3ccccc3S2(=O)=O)C1c1ccccc1C(F)(F)F` (stereo not drawn) [Example 45, 2,6-Dimethyl-5-(2-methoxyethoxycarbonyl)-4-(2-trifluoromethylphenyl)-1,4-dihydropyridine-3-carboxylic acid-3-[N-(1,2-benzisothiazolyl-3(2H)one-1,1-dioxide)]-propylester], the half-inhibitory concentration (IC50) with rabbit aorta came out at 1.38 nM. In addition, the “Selectivity index (Atrium/Aorta)” value in assay [1] is 16. In assay [2], the change in vivo at 20 mg/kg was found to be 11%.
The corresponding values for `CC1=C(C(=O)OCCN2C(=O)c3ccccc3S2(=O)=O)C(c2cccc([N+](=O)[O-])c2)C(C(=O)OC(C)(C)C)=C(C)N1` (stereo not drawn) [Example 51] are 1.6 nM, 72 and 24.6%.
On the same counts, the results for `CC1=C(C(=O)OCCCN2C(=O)c3ccccc3S2(=O)=O)C(c2ccccc2Cl)C(C(=O)OC(C)C)=C(C)N1` (stereo not drawn) [Example 52, 4-(2-Chlorophenyl)-2,6-dimethyl-5-isopropoxycarbonyl-1,4-dihydropyridine-3-carboxylic acid-3-[N-(1,2-benzisothiazolyl-3(2H)one-1,1-dioxide)]-propylester] are 1.3 nM, 37 and 19.4%.
On the same counts, the results for `CC1=C(C(=O)OCCN2C(=O)c3ccccc3S2(=O)=O)C(c2ccccc2[N+](=O)[O-])C(C(=O)OC(C)(C)C)=C(C)N1` (stereo not drawn) [Example 54, 5-Tert.-butoxycarbonyl-2,6-dimethyl-4-(2-nitrophenyl)-1,4-dihydropyridine-3-carboxylic acid-2-[N-(1,2-benzisothiazolyl-3(2H)one-1,1-dioxide)]-ethylester] are 0.7 nM, 41 and 23.4%.
For the compound `CC1=C(C(=O)OCCN2C(=O)c3ccccc3S2(=O)=O)C(c2cccc(Cl)c2Cl)C(C(=O)OC(C)(C)C)=C(C)N1` (stereo not drawn) [Example 55, 5-Tert.-butoxycarbonyl-4-(2,3-dichlorophenyl)-2,6-dimethyl-1,4-dihydropyridine-3-carboxylic acid-2-[N-(1,2-benzisothiazolyl-3(2H)one-1,1-dioxide)]-ethylester], the IC50 in the assay with rabbit aorta amounted to 2.3 nM. In addition, the “Selectivity index (Atrium/Aorta)” value in assay [1] was 122. The change in vivo at 20 mg/kg in assay [2] was determined as 35.8%.
On the same counts, the results for `COC(=O)C1=C(C)NC(C)=C(C(=O)OC)C1c1ccccc1[N+](=O)[O-]` [nifedipine, 2,6-dimethyl-4-(2-nitrophenyl)-1,4-dihydropyridine-3,5-dicarboxylic acid 3,5-dimethylester, reference compound] are 2.9 nM, 39 and 35.4%.
